Experimental data from PubChem BioAssay (NCI).
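Values below derive from 48-hour exposures of cells grown in 96-well plates, with endpoints linearly interpolated between the two concentrations bracketing the appropriate inhibition level. GI50 = concentration required for 50% inhibition of growth. TGI is the concentration that stops growth completely.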 Where a SMILES comes first, the peptide text is derived from it. The star is where a group is joined. Palmitoyl = CCCCCCCCCCCCCCCC(=O)*

How the values were obtained:
Assay in all cases: NCI anticancer screen, dose series, 48 h
[1] = tested on: CCRF-CEM leukemia
[2] = tested on: NCI-H23 lung
[3] = tested on: SF-295 CNS
[4] = tested on: OVCAR-5 ovarian
[5] = tested on: COLO 205 colon
[6] = tested on: CAKI-1 renal
[7] = tested on: K-562 leukemia
[8] = tested on: SF-268 CNS
[9] = tested on: IGROV1 ovarian
[10] = tested on: MOLT-4 leukemia

SMILES	TGI [1]	TGI [2]	TGI [3]	TGI [4]	TGI [5]	TGI [6]	TGI [7]	TGI [8]	TGI [9]	TGI [10]	GI50 [1]	GI50 [2]	GI50 [3]	GI50 [5]	GI50 [7]	GI50 [8]	GI50 [10]	GI50 [4]	GI50 [6]	GI50 [9]
Cc1ccc(-c2nc(N/N=C/C=C/c3ccccc3)c3ccccc3n2)cc1	> 100 µM	> 100 µM	> 100 µM	48.1 µM	> 100 µM	> 100 µM	> 100 µM	> 100 µM	> 100 µM	> 100 µM										
OCCN(CCO)c1ncnc2nc[nH]c12	> 100 µM	> 100 µM	> 100 µM	> 100 µM	> 100 µM	> 100 µM	> 100 µM	> 100 µM	> 100 µM	> 100 µM										
O=C(/C=C/c1ccc(Oc2cc(C(=O)/C=C/c3ccc(O)cc3)c(O)cc2O)cc1)c1ccc(O)cc1O	10.8 µM	28.6 µM	18.5 µM	16.7 µM	6.08 µM	18.1 µM	16.6 µM	28.3 µM	11.3 µM	> 100 µM										
COC(=O)C1=C(OC(=O)/C(=C/c2ccc(Cl)cc2)c2ccc(Cl)cc2)C(C(=O)OC)[C@]2(O)[C@@H](C(=O)OC)[C@H]1C[C@@H](c1ccccc1)[C@@H]2C(=O)OC (some centres not stated)		> 100 µM	> 100 µM	> 100 µM	> 100 µM	> 100 µM	> 100 µM	> 100 µM	> 100 µM	> 100 µM										
C/C(=N/N=C(\[O-])c1ccncc1)C(F)(F)F.C/C(=N\N=C(/[O-])c1ccncc1)C(F)(F)F.[Ni+2]	> 1 µM	> 1 µM	> 1 µM		> 1 µM		> 1 µM	> 1 µM		> 1 µM	> 1 µM	> 1 µM	> 1 µM	> 1 µM	> 1 µM	> 1 µM	> 1 µM			
CCCCCCCCCCCCCCCC(=O)N1CCCC1C(=O)NCC(=O)NC(Cc1ccccc1)C(=O)NC(C)C(=O)NC(CO)C(=O)NC(Cc1ccc(O)cc1)C(=O)NC(CCCCN)C(=O)NC(CC(C)C)C(=O)NC(CCCN=C(N)N)C(=O)N1CCCC1C(=O)NCC(N)=O (configuration not stated) (Palmitoyl-PGFASYKLRPG-NH2; configuration not given here)	30.1 µM	58.9 µM	67.1 µM	38.6 µM	22.8 µM	32.1 µM	32.2 µM	36 µM	46.1 µM	31.4 µM	16.5 µM	23.6 µM	27.3 µM	10.9 µM	18.3 µM	16.3 µM	17.6 µM	15.4 µM	12.4 µM	20.1 µM
COc1cc(C(C)O)c[n+](Cc2ccccc2)c1 (configuration not stated)	> 100 µM	> 100 µM	> 100 µM	> 100 µM	> 100 µM	> 100 µM	> 100 µM	> 100 µM	> 100 µM	> 100 µM										
O=c1c2cc(S(=O)(=O)O)ccc2nc(COc2ccc(Oc3ccc(Cl)cc3Cl)cc2)n1-c1ccc(Oc2ccc(Cl)cc2)cc1Cl	> 100 µM	43 µM	35.5 µM	55.1 µM	34 µM	> 100 µM	83.1 µM	26 µM	66.2 µM	94.9 µM										
C[N+](C)(C)c1ncnc2c1ncn2C1CC(O)C(CO)O1 (configuration not stated)	> 100 µM	> 100 µM	> 100 µM	> 100 µM	> 100 µM	> 100 µM	> 100 µM	> 100 µM	> 100 µM	> 100 µM										
Nc1[nH]c(=O)nc2c1cnn2C1CCCCO1 (configuration not stated)	> 100 µM	> 100 µM	> 100 µM	> 100 µM	> 100 µM	> 100 µM	> 100 µM	> 100 µM	> 100 µM	> 100 µM										
CC(C)C(C(=O)O)N1C(=O)c2ccccc2C1=O (configuration not stated)	> 100 µM	> 100 µM	> 100 µM	> 100 µM	> 100 µM	> 100 µM	> 100 µM	> 100 µM	> 100 µM	> 100 µM										
COC(=O)/C=C(\CC(=O)OC)n1nnnc1[C@@H]1C[C@H](COC(c2ccccc2)(c2ccccc2)c2ccccc2)[C@H]2OC(C)(C)O[C@H]21	> 100 µM		> 100 µM	> 100 µM	> 100 µM	> 100 µM	> 100 µM	> 100 µM	> 100 µM	> 100 µM										
